The target of one test is MOZ-KAT6A (Homo sapiens, UniProt Q92794, A567V). The test is described as follows: Acetyltransferase biochemical assay (AlphaScreen), KAT6A.
The next test concerns the target TIP60-KAT5 (Homo sapiens, UniProt Q92993). The experiment in a line: Acetyltransferase biochemical assay (AlphaScreen), KAT5.
A further test has as its target HBO-KAT7 (Homo sapiens, UniProt O95251). The test is described as follows: Acetyltransferase biochemical assay (AlphaScreen), KAT7.

24 compounds from patent publication US12365655B2, “Compounds” (CTXT PTY LTD, priority 2018, dated 2025) can be followed below.

Some results are limits rather than exact numbers.

HBO-KAT7, sequence (O95251 with tags, fused parts or gaps): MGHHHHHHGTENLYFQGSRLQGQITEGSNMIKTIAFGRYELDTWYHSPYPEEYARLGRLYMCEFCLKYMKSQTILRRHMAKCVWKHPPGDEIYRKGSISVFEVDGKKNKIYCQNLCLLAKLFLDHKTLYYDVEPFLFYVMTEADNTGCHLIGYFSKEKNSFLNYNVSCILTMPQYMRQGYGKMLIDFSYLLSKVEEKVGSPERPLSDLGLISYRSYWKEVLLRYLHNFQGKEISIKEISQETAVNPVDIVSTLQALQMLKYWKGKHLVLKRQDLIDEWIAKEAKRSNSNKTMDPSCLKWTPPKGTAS
MOZ-KAT6A, sequence (Q92794 with tags, fused parts or gaps A567V): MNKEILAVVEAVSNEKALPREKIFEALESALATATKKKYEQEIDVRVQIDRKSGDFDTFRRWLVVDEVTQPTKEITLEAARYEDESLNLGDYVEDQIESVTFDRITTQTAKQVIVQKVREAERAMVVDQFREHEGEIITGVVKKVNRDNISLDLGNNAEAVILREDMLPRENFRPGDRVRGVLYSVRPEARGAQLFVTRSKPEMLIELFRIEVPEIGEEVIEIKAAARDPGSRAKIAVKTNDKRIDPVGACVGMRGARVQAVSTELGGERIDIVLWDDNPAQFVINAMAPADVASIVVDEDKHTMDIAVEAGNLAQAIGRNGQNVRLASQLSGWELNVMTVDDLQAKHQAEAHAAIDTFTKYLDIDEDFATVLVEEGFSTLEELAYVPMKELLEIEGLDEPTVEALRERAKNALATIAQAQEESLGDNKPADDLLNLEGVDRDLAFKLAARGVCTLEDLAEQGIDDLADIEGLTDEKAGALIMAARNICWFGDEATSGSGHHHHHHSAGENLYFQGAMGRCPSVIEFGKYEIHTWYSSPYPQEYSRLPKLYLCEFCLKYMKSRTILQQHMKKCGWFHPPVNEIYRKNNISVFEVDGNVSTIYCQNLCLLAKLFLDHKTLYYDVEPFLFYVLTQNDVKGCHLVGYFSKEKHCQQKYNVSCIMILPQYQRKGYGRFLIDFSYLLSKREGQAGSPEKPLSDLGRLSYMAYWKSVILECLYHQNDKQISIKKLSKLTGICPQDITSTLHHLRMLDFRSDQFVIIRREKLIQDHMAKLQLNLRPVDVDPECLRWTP
TIP60-KAT5, sequence (Q92993 with tags, fused parts or gaps isoform Q92993-2): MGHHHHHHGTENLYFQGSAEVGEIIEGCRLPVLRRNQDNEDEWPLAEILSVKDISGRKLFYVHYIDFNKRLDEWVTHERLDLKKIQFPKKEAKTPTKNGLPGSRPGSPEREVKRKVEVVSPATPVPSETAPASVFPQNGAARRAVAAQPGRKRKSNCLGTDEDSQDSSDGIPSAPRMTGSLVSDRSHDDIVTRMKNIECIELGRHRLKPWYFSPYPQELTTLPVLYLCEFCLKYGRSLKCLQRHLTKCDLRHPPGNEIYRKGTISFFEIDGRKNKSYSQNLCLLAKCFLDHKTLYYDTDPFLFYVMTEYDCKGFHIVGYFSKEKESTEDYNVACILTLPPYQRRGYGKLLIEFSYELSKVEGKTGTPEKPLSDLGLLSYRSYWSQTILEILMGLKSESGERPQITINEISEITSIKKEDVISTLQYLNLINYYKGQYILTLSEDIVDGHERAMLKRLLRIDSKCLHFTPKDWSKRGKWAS

On to `COc1ccc(S(=O)(=O)Nc2noc3cccc(OC)c23)c(OC)c1` [Example 76, 2,4-dimethoxy-N-(4-methoxybenzo [d]isoxazol-3-yl)benzene sulfonamide], for which the results for the half-maximal inhibitory concentration (IC50) against MOZ-KAT6A, against TIP60-KAT5 and against HBO-KAT7 were 0.688 µM, 2.58 µM and 0.937 µM, respectively.
In the same order, the values of `COc1cccc2onc(NS(=O)(=O)c3c(C)ccc4cccnc34)c12` [Example 77, N-(4-methoxybenzo[d]isoxazol-3-yl)-7-methyl quinoline-8-sulfonamide] are 10.8 µM, 51.8 µM and 12 µM.
Consider `COc1cccc2onc(NS(=O)(=O)c3cc(C)cc4cccnc34)c12` [Example 78, N-(4-methoxybenzo[d]isoxazol-3-yl)-6-methyl quinoline-8-sulfonamide], for which the IC50 at MOZ-KAT6A was 93.8 µM; at TIP60-KAT5, above 125 µM; on HBO-KAT7, above 125 µM.
For the compound `COc1cccc2onc(NS(=O)(=O)c3cccc4c(C)ccnc34)c12` [Example 79, N-(4-methoxybenzo[d]isoxazol-3-yl)-4-methyl quinoline-8-sulfonamide], the half-maximal inhibitory concentration (IC50) amounted to 13.9 µM against MOZ-KAT6A, 17.5 µM on TIP60-KAT5 and 4.06 µM against HBO-KAT7.
For `COc1cccc2onc(NS(=O)(=O)c3cccc4cccnc34)c12` [Example 83, N-(4-methoxybenzo[d]isoxazol-3-yl)quinoline-8-sulfonamide], the IC50 against MOZ-KAT6A was 13.6 µM; on TIP60-KAT5 it was 17.9 µM; against HBO-KAT7 it was 3.79 µM.
On to `COc1cccc2onc(NS(=O)(=O)c3ccc4c(c3)CCCC4)c12` [Example 84, N-(4-methoxybenzo[d]isoxazol-3-yl)-5,6,7,8-tetrahydro-naphthalene-2-sulfonamide], for which the IC50 against MOZ-KAT6A amounted to 18.7 µM; on TIP60-KAT5, 50.5 µM; against HBO-KAT7, 20 µM.
For `COc1cc(OC)c(S(=O)(=O)Nc2noc3cccc(OC)c23)c(OC)c1` [Example 85, 2,4,6-trimethoxy-N-(4-methoxybenzo[d]isoxazol-3-yl)benzene sulfonamide], the half-inhibitory concentration (IC50) came to 3.87 µM at MOZ-KAT6A, 28.5 µM against TIP60-KAT5 and 1.77 µM at HBO-KAT7.
In the same order, the values of `COCc1ccccc1S(=O)(=O)Nc1noc2cccc(OC)c12` [Example 88, N-(4-methoxybenzo[d]isoxazol-3-yl)-2-(methoxymethyl)benzene-sulfonamide] are 41.2 µM, above 125 µM and 7.51 µM.
With `COc1cccc2onc(NS(=O)(=O)c3ccccc3)c12` [Example 90, N-(4-Methoxybenzo[d]isoxazol-3-yl)benzenesulfonamide], the values for the 50% inhibitory concentration (IC50) on MOZ-KAT6A, against TIP60-KAT5 and on HBO-KAT7 were 4.78 µM, 90.7 µM and 18.9 µM, respectively.
As for `COc1ccc2cccnc2c1S(=O)(=O)Nc1noc2cccc(OC)c12` [Example 98, 7-Methoxy-N-(4-methoxybenzo[d]isoxazol-3-yl)quinoline-8-sulfonamide], the results for the IC50 against MOZ-KAT6A, on TIP60-KAT5 and on HBO-KAT7 were 5.6 µM, 31.3 µM and 3.41 µM, respectively.
`COc1ccc(Oc2ccccc2)cc1S(=O)(=O)Nc1noc2cccc(OC)c12` [Example 99, 2-Methoxy-N-(4-methoxybenzo[d]isoxazol-3-yl)-5-phenoxybenzenesulfonamide]: the half-inhibitory concentration (IC50) on MOZ-KAT6A stood at 2.1 µM; against TIP60-KAT5, 9.7 µM; against HBO-KAT7, 5.74 µM.
`COc1ccc(C(F)(F)F)c(OC)c1S(=O)(=O)Nc1noc2cccc(OC)c12` [Example 101, 2,6-Dimethoxy-N-(4-methoxybenzo[d]isoxazol-3-yl)-3-(trifluoromethyl)benzenesulfonamide]: the 50% inhibitory concentration (IC50) against MOZ-KAT6A was found to be 3.8 µM; against TIP60-KAT5, 98.2 µM; against HBO-KAT7, 32.8 µM.
In the case of `COCc1ccc2c(NS(=O)(=O)c3c(OC)cccc3OC)noc2c1` [Example 103, 2,6-Dimethoxy-N-(6-(methoxymethyl)benzo [d]isoxazol-3-yl)benzenesulfonamide], the results for the IC50 against MOZ-KAT6A, against TIP60-KAT5 and against HBO-KAT7 were 0.81 µM, 69.3 µM and 5.93 µM, respectively.
On to `COc1cccc(OC)c1S(=O)(=O)Nc1noc2ccc(C)cc12` [Example 104, 2,6-Dimethoxy-N-(5-methylbenzo[d]isoxazol-3-yl)benzenesulfonamide], for which the IC50 at MOZ-KAT6A came out at 0.786 µM; against TIP60-KAT5, 28.1 µM; against HBO-KAT7 it was 3.13 µM.
In the case of `COc1cccc(OC)c1S(=O)(=O)Nc1noc2cc(-n3nc(C)cc3C)ccc12` [Example 105], the results for the IC50 against MOZ-KAT6A, against TIP60-KAT5 and against HBO-KAT7 were 2.9 µM, above 125 µM and 63.2 µM, respectively.
For the compound `COc1cc2c(c(OC)c1S(=O)(=O)Nc1noc3cccc(OC)c13)CCC2` [Example 106, 4,6-Dimethoxy-N-(4-methoxybenzo[d]isoxazol-3-yl)-2,3-dihydro-1H-indene-5-sulfonamide], the IC50 on MOZ-KAT6A turned out to be 0.782 µM; against TIP60-KAT5, 14.3 µM; on HBO-KAT7 it was 3.98 µM.
As for `CCc1ccc(OC)c(S(=O)(=O)Nc2noc3ccc(Br)c(OC)c23)c1` [Example 108, N-(5-bromo-4-methoxybenzo[d]isoxazol-3-yl)-5-ethyl-2-methoxy benzenesulfonamide], the IC50 at MOZ-KAT6A is 3.09 µM; on TIP60-KAT5, 41.9 µM; against HBO-KAT7, 2.04 µM.
In the same order, the values of `CCc1ccc(OC)c(S(=O)(=O)Nc2noc3cccc(COC)c23)c1` [Example 110, 5-Ethyl-2-methoxy-N-(4-(methoxymethyl)benzo [d]isoxazol-3-yl)benzenesulfonamide] are 7.89 µM, above 125 µM and 17.5 µM.
In the same order, the values of `CCOc1cccc2onc(NS(=O)(=O)c3cc(CC)ccc3OC)c12` [Example 112] are 1.46 µM, 16.5 µM and 3.01 µM.
As to `COc1cc2c(cc1S(=O)(=O)Nc1noc3ccc(Br)cc13)CCCC2` [Example 113, N-(5-bromobenzo[d]isoxazol-3-yl)-3-methoxy-5,6,7,8-tetrahydronaphthalene-2-sulfonamide], the IC50 at MOZ-KAT6A worked out at 0.775 µM; on TIP60-KAT5, 4.84 µM; against HBO-KAT7, 0.914 µM.
Regarding `Cc1ccc(Br)cc1S(=O)(=O)Nc1noc2cccc(Cl)c12` [Example 114, 5-Bromo-N-(4-chlorobenzo[d]isoxazol-3-yl)-2-methylbenzenesulfonamide], the IC50 on MOZ-KAT6A came to 29.3 µM; on TIP60-KAT5, 59.4 µM; on HBO-KAT7, 41.6 µM.
As to `COC(=O)c1ccc(Cl)cc1S(=O)(=O)Nc1noc2cccc(Cl)c12` [Example 115, Methyl 4-chloro-2-(N-(4-chlorobenzo[d]isoxazol-3-yl)sulfamoyl)benzoate], the half-maximal inhibitory concentration (IC50) against MOZ-KAT6A stood at 29 µM; against TIP60-KAT5, 23.7 µM; against HBO-KAT7, 95.5 µM.
For `O=S(=O)(Nc1noc2cccc(Cl)c12)c1ccc(F)c(F)c1F` [Example 117, N-(4-Chlorobenzo[d]isoxazol-3-yl)-2,3,4-trifluorobenzenesulfonamide], the 50% inhibitory concentration (IC50) is 85.4 µM against MOZ-KAT6A, above 125 µM against TIP60-KAT5 and above 125 µM against HBO-KAT7.
On to `Cc1cnc2c(S(=O)(=O)Nc3noc4cccc(Cl)c34)cccc2c1` [Example 118, N-(4-Chlorobenzo[d]isoxazol-3-yl)-3-methylquinoline-8-sulfonamide], for which the IC50 was determined as 10 µM against MOZ-KAT6A, 37.1 µM on TIP60-KAT5 and 0.852 µM against HBO-KAT7.
